Data from ChEMBL document CHEMBL5725343, “Amino-substituted isothiazoles” (2017).

Tests used:
[1] = target: Mitotic checkpoint serine/threonine-protein kinase BUB1 (Homo sapiens, UniProt O43683); test: Bub1 Kinase Assay: Recombinant fusion proteins of GST and human CDK2 and of GST and human CycE, expressed in insect cells (Sf9) and purified by Glutathion-Sepharose affinity chromatography, were purchased from ProQinase GmbH (Freiburg, Germany). As substrate for the kinase reaction biotinylated peptide biotin-Ttds-YISPLKSPYKISEG (C-terminus in amid form) was used which can be purchased e.g. form the company JERINI peptide technologies (Berlin, Germany). For the assay 50 nl of a 100 fold concentrated solution of the test compound in DMSO was pipetted into a black low volume 384 well microtiter plate (Greiner Bio-One, Frickenhausen, Germany), 2 ul of a solution of CDK2/CycE in aqueous assay buffer [50 mM Tris/HCl pH 8.0, 10 mM MgCl2, 1.0 mM dithiothreitol, 0.1 mM sodium ortho-vanadate, 0.01% (v/v) Nonidet-P40 (Sigma)] were added and the mixture was incubated for 15 min at 22° C. to allow pre-binding of the test compounds to the enzyme before the start of the kinase reaction. Then the kinase reaction was started by the addition of 3 ul of a solution of adenosine-tri-phosphate (ATP, 16.7 uM=>final conc. in the 5 ul assay volume is 10 uM) and substrate (1.25 uM=>final conc. in the 5 ul assay volume is 0.75 uM) in assay buffer and the resulting mixture was incubated for a reaction time of 25 min at 22° C. […]
Sequence of Mitotic checkpoint serine/threonine-protein kinase BUB1 (O43683 whole entry, the tested form may be a part): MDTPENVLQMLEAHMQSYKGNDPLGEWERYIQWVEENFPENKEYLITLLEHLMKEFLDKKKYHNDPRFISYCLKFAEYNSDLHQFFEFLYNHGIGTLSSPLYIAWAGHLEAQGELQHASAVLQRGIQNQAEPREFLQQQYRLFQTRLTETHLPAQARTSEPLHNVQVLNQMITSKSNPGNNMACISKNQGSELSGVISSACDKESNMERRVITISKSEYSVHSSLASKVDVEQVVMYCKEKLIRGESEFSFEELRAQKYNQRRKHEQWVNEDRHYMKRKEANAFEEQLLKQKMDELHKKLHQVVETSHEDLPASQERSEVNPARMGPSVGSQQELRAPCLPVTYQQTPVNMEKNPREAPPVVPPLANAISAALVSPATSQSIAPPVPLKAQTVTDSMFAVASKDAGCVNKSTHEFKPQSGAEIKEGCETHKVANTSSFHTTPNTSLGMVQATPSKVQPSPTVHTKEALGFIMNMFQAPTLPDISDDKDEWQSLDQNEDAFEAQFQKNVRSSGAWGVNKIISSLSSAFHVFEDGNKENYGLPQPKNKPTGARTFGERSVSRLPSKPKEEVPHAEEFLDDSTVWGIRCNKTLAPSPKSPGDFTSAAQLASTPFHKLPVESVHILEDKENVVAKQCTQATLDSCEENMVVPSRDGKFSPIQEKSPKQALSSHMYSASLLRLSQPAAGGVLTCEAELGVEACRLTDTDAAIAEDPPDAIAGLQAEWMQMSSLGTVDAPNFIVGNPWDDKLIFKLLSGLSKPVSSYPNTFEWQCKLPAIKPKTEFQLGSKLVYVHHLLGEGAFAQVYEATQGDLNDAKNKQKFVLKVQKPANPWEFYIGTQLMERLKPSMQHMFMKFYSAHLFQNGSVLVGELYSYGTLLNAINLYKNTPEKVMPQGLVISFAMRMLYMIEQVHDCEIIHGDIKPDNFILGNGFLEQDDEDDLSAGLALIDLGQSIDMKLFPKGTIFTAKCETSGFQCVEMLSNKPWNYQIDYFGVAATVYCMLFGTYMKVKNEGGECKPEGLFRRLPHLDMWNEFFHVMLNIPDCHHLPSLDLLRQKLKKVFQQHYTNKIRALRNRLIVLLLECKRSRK

[2] = target: T1, Dual specificity protein kinase TTK (Homo sapiens, UniProt P33981); test: Mps-1 Kinase Assay: N-terminally GST-tagged human full length recombinant Mps-1 kinase (purchased from Invitrogen, Karslruhe, Germany, cat. no PV4071) was used. As substrate for the kinase reaction a biotinylated peptide of the amino-acid sequence biotin-Ahx-PWDPDDADITEILG (C-terminus in amide form, purchased from Biosyntan GmbH, Berlin) was used. For the assay 50 nl of a 100-fold concentrated solution of the test compound in DMSO was pipetted into a black low volume 384 well microtiter plate (Greiner Bio-One, Frickenhausen, Germany), 2 ul of a solution of Mps-1 in assay buffer [0.1 mM sodium-ortho-vanadate, 10 mM MgCl2, 2 mM DTT, 25 mM Hepes pH 7.7, 0.05% BSA (w/v), 0.001% Pluronic F-127] were added and the mixture was incubated for 15 min at 22° C. to allow pre-binding of the test compounds to Mps-1 before the start of the kinase reaction. Then the kinase reaction was started by the addition of 3 ul of a solution of 16.7 uM adenosine-tri-phosphate (ATP, 16.7 uM=>final conc. in the 5 ul assay volume is 10 uM) and peptide substrate (1.67 uM=>final conc. in the 5 ul assay volume is 1 uM) in assay buffer and the resulting mixture was incubated for a reaction time of 60 min at 22° C. […]
T1 sequence (P33981 whole entry): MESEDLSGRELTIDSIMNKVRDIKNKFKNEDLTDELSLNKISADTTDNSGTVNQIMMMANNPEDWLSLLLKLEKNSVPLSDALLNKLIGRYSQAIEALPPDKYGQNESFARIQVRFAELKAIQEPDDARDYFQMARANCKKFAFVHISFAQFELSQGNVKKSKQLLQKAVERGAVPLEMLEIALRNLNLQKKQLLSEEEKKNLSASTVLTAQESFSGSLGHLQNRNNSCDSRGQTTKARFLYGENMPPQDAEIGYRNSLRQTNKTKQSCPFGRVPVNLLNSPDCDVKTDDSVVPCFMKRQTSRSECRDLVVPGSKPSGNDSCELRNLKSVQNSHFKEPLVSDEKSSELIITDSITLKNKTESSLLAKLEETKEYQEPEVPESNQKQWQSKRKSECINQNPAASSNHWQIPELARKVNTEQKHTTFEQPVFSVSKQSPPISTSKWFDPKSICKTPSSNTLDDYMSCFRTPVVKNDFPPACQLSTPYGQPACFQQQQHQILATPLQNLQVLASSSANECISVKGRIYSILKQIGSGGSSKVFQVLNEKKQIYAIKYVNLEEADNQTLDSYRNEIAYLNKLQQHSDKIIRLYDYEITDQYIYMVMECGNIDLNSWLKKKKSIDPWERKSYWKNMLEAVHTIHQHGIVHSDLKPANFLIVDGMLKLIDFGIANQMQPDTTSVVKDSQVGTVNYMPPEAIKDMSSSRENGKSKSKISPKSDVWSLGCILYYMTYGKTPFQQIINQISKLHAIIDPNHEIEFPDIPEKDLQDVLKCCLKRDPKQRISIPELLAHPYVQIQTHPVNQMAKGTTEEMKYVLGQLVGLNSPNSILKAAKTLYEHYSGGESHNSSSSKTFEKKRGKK

[3] = […]: N-terminally His6-tagged recombinant catalytic domain of human Bub1 (amino acids 704-1085), expressed in insect cells (Hi5) and purified by Ni-NTA affinity chromatography and subsequent size exclusion chromatography, was used as enzyme. As substrate for the kinase reaction the biotinylated peptide biotin-Ahx-VLLPKKSFAEPG (C-terminus in amid form) was used which can be purchased e.g. form the company Biosyntan (Berlin, Germany). For the assay 50 nl of a 100 fold concentrated solution of the test compound in DMSO was pipetted into a black low volume 384 well microtiter plate (Greiner Bio-One, Frickenhausen, Germany), 2 ul of a solution of Bub1 in aqueous assay buffer [50 mM Tris/HCl pH 7.5, 10 mM magnesium chloride (MgCl2), 200 mM potassium chloride (KCl), 1.0 mM dithiothreitol (DTT), 0.1 mM sodium ortho-vanadate, 1% (v/v) glycerol, 0.01% (w/v) bovine serum albumine (BSA), 0.005% (v/v) Trition X-100 (Sigma), 1x Complete EDTA-free protease inhibitor mixture (Roche)] were added and the mixture was incubated for 15 min at 22° C. to allow pre-binding of the test compounds to the enzyme before the start of the kinase reaction. […]

Row | IC50 [1] [µM] | IC50 [2] [µM] | Compound | IC50 [3] [µM]
1 | > 20 | > 20 | Cc1nsc(Nc2cc(C#N)ccn2)c1C(=O)Nc1ccc(Oc2ccc(F)cc2F)nc1 | –
2 | 15 | > 20 | Cc1nsc(Nc2cncc(-n3cccn3)n2)c1C(=O)Nc1ccc(F)c(F)c1 | –
3 | – | – | COc1ccc(Oc2ccc(CC(=O)c3c(C)nsc3Nc3cc(C#N)ccn3)cn2)cc1 | > 20
